# Patent US20230233430A1, “POLYOL ESTERS FROM BIOBASED FEEDSTOCKS FOR USE AS EMOLLIENT IN PERSONAL CARE APPLICATIONS” (priority 2020, published 2023)
# Test: Decomposition temperature by thermogravimetric analyser (TGA)
# Assay type: physicochemical
# Settings: reactants
# Experimental: The decomposition temperature of the reactants and polyol ester of different grades (PE25, PE50 and PE100) were determined using a thermogravimetric analyser (TGA). TGA is a method of thermal analysis by measuring the changes in the mass of a sample over increasing temperatures.
SMILES,Decomposition temperature,Amount of sample decomposed within the temperature range
CCCCCCCC(=O)O [Caprylic acid],150.9 to 193.3 °C,
OCC(O)CO [Glycerin],178.7 to 220.9 °C,
O=C(O)CCCCCCCCC(=O)O [Sebacic acid],247.9 to 283.9 °C,95.24 wt. %
